Target: ROCK2 (Homo sapiens (Human), UniProt O75116)
Assay: ROCK2 kinase inhibition assay (FITC peptide substrate, LABCHIP 3000 Reader)
Assay type: biochemical
Conditions: 5 μM ATP, 1.5 μM peptide substrate
Procedure, shortened: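 IC50 derived by curve fitting of dose-response inhibition, read as separation of phosphorylated from unphosphorylated FITC peptide (1.5 μM) after EDTA stop. Buffer: HEPES pH 7.5, MgCl2, Brij-35, DTT; ATP 5 μM; final DMSO <2%; reaction initiated by Rho kinase addition.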

ROCK2, sequence (O75116 whole entry, species assumed): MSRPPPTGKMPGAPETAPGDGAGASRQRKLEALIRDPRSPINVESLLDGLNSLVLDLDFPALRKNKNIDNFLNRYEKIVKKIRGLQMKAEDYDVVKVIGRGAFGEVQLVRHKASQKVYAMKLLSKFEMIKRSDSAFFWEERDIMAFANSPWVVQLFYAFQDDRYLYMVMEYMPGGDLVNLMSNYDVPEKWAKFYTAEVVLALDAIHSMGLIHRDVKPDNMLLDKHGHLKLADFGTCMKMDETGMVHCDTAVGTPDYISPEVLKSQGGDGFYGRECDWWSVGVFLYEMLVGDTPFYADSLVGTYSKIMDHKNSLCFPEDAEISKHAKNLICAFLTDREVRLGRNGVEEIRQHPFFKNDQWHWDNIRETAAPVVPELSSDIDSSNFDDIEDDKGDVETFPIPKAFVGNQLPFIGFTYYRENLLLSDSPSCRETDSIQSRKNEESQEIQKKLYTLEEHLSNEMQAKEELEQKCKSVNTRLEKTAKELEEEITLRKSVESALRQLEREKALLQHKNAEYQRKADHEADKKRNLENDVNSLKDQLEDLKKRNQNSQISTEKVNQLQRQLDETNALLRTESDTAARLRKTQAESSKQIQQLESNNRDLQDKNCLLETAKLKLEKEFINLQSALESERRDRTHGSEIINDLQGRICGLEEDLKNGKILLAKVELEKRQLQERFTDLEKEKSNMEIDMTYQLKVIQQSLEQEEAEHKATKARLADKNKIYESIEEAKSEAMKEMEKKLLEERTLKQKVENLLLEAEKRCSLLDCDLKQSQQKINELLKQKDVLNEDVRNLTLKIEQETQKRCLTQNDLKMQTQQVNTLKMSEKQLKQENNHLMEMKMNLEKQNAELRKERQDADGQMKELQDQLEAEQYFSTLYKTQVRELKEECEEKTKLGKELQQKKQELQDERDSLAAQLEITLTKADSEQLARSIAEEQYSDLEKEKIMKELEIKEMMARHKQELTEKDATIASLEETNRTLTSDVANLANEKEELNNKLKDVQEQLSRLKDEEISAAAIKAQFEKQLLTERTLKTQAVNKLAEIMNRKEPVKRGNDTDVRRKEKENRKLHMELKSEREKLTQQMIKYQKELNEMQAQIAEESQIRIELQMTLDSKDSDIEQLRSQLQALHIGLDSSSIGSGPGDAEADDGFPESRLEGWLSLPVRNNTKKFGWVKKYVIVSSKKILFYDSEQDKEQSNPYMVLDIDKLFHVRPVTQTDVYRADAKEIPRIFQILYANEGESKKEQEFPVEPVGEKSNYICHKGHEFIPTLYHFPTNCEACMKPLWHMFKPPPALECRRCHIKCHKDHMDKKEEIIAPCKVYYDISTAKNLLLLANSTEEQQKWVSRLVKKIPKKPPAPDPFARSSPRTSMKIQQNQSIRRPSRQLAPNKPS

| SMILES | IC50 [nM] |
| --- | --- |
| CCc1nc(N2CC3(CCN(CCC(F)(F)F)CC3)N(Cc3cc(F)cc(OC)c3)C2=O)ccc1-c1cn[nH]c1 [Example 128, 3-(6-ethyl-5-(1H-pyrazol-4-yl)pyridin-2-yl)-1-(3-fluoro-5-methoxybenzyl)-8-(3,3,3-tnfluoropropyl)-1,3,8-triazaspiro[4.5]decan-2-one] | 3 to 30 |
| COc1nc(N2CC3(CCN(CC(C)O)CC3)N(Cc3cccc(F)c3C)C2=O)ccc1-c1cn[nH]c1 (centres unmarked) [Example 166, 1-(3-fluoro-2-methylbenzyl)-8-(2-hydroxypropyl)-3-(6-methoxy-5-(1H-pyrazol-4-yl)pyridin-2-yl)-1,3,8-triazaspiro[4.5]decan-2-one] | < 3 |
| COc1cc(F)cc(CN2C(=O)N(c3ccc(-c4cn[nH]c4)cc3)CC23CCN(C(=O)C2(C)COC2)CC3)c1 [Example 193, 33-(4-(1H-pyrazol-4-yl)phenyl)-1-(3-fluoro-5-methoxybenzyl)-8-(3-methyloxetane-3-carbonyl)-1,3,8-triazaspiro[4.5]decan-2-one] | < 3 |
| CCc1nc(N2CC3(CCN(C(=O)OC(C)(C)C)CC3)N(Cc3cccc(OC)c3)C2=O)ccc1-c1cn[nH]c1 [Example 53, tert-butyl 3-(6-ethyl-5-(1H-pyrazol-4-yl)pyridin-2-yl)-1-(3-methoxybenzyl)-2-oxo-1,3,8-triazaspiro[4.5]decane-8-carboxylate] | 30 to 250 |
| COCC(=O)N1CCC2(CC1)CN(c1ccc(-c3cn[nH]c3)cn1)C(=O)N2Cc1cccc(OC)c1 [Example 197, 3-(5-(1H-pyrazol-4-yl)pyridin-2-yl)-8-(2-methoxyacetyl)-1-(3-methoxybenzyl)-1,3,8-triazaspiro[4.5]decan-2-one] | 3 to 30 |
| CC(=O)N1CCC2(CC1)CN(c1ccc(-c3cn[nH]c3)cc1)C(=O)N2Cc1cccc(F)c1C [Example 82, 3-(4-(1H-pyrazol-4-yl)phenyl)-8-acetyl-1-(3-fluoro-2-methylbenzyl)-1,3,8-triazaspiro[4.5]decan-2-one] | 3 to 30 |
| O=C(c1cccc(CN2C(=O)N(c3ccc(-c4cn[nH]c4)cc3)CC23CCOCC3)c1)N1CC[C@H](O)C1 [Example 44, (S)-3-(4-(1H-pyrazol-4-yl)phenyl)-1-(3-(3-hydroxypyrrolidine-1-carbonyl)benzyl)-8-oxa-1,3-diazaspiro[4.5]decan-2-one] | 30 to 250 |
| CCOC(=O)N1CCC2(CC1)CN(c1ccc(-c3cn[nH]c3)c(CC)n1)C(=O)N2Cc1cc(F)cc(OC)c1 [Example 106, ethyl 3-(6-ethyl-5-(1H-pyrazol-4-yl)pyridin-2-yl)-1-(3-fluoro-5-methoxybenzyl)-2-oxo-1,3,8-triazaspiro[4.5]decane-8-carboxylate] | 3 to 30 |
| O=C1N(c2ccc(-c3cn[nH]c3)cc2)CC2(CCNCC2)N1Cc1cccc(O)c1 [Example 62, 3-(4-(1H-pyrazol-4-yl)phenyl)-1-(3-hydroxybenzyl)-1,3,8-triazaspiro[4.5]decan-2-one] | < 3 |
| CCc1nc(N2CC3(CCN(C(=O)C4COC4)CC3)N(Cc3cccc(F)c3C)C2=O)ccc1-c1cn[nH]c1 [Example 182, 3-(6-ethyl-5-(1H-pyrazol-4-yl)pyridin-2-yl)-1-(3-fluoro-2-methylbenzyl)-8-(oxetane-3-carbonyl)-1,3,8-triazaspiro[4.5]decan-2-one] | < 3 |
| COc1cccc(CN2C(=O)N(c3ncc(-c4cn[nH]c4)c(OC)n3)CC23CCN(C(=O)C(C)(C)O)CC3)c1 [Example 212, 8-(2-hydroxy-2-methylpropanoyl)-3-(4-methoxy-5-(1H-pyrazol-4-yl)pyrimidin-2-yl)-1-(3-methoxybenzyl)-1,3,8-triazaspiro[4.5]decan-2-one] | 3 to 30 |
| COc1nc(N2CC3(CCN(CC(F)F)CC3)N(Cc3cccc(F)c3C)C2=O)ccc1-c1cn[nH]c1 [Example 137] | < 3 |
| COc1cccc(CN2C(=O)N(c3ccc(-c4cn[nH]c4)cc3)CC23CCN(CC2CCOC2)CC3)c1 (centres unmarked) [Example 114, 3-(4-(1H-pyrazol-4-yl)phenyl)-1-(3-methoxybenzyl)-8-((tetrahydrofuran-3-yl)methyl)-1,3,8-triazaspiro[4.5]decan-2-one] | < 3 |

The next lines start with the values.

| IC50 [nM] | SMILES |
| --- | --- |
| < 3 | COc1cccc(CN2C(=O)N(c3ccc(-c4cn[nH]c4)cc3)CC23CCN(CC(C)O)CC3)c1 (single isomer, unassigned) [Example 139, 3-(4-(1H-pyrazol-4-yl)phenyl)-8-(2-hydroxypropyl)-1-(3-methoxybenzyl)-1,3,8-triazaspiro[4.5]decan-2-one] |
| < 3 | COc1cccc(CN2C(=O)N(c3ccc(-c4cn[nH]c4)c(OC)n3)CC23CCN(CCC(F)(F)F)CC3)c1 [Example 136, 3-(6-methoxy-5-(1H-pyrazol-4-yl)pyridin-2-yl)-1-(3-methoxybenzyl)-8-(3,3,3-trifluoropropyl)-1,3,8-triazaspiro[4.5]decan-2-one] |
| < 3 | COc1cccc(CN2C(=O)N(c3ccc(-c4cn[nH]c4)c(OC)n3)CC23CCN(C2COC2)CC3)c1 [Example 238, 3-(6-methoxy-5-(1H-pyrazol-4-yl)pyridin-2-yl)-1-(3-methoxy-benzyl)-8-(oxetan-3-yl)-1,3,8-triazaspiro [4.5]decan-2-one] |
| 3 to 30 | COc1nc(N2CC3(CCN(C(=O)OC(C)(C)C)CC3)N(Cc3cccc(F)c3C)C2=O)ccc1-c1cn[nH]c1 [Example 55, tert-butyl 1-(3-fluoro-2-methylbenzyl)-3-(6-methoxy-5-(1H-pyrazol-4-yl)pyridin-2-yl)-2-oxo-1,3,8-triazaspiro[4.5]decane-8-carboxylate] |
| 3 to 30 | COc1cccc(CN2C(=O)N(c3ccc(-c4cn[nH]c4)cn3)CC23CCN(C(C)=O)CC3)c1 [Example 50, 3-(5-(1H-pyrazol-4-yl)pyridin-2-yl)-8-acetyl-1-(3-methoxybenzyl)-1,3,8-triazaspiro[4.5]decan-2-one] |
| 3 to 30 | Cc1c(F)cccc1CN1C(=O)N(c2ccc(-c3cn[nH]c3)cc2)CC12CCN(C(=O)OC(C)(C)C)CC2 [Example 49, tert-butyl 3-(4-(1H-pyrazol-4-yl)phenyl)-1-(3-fluoro-2-methylbenzyl)-2-oxo-1,3,8-triazaspiro[4.5]decane-8-carboxylate] |
| 3 to 30 | COc1cccc(C(C)N2C(=O)N(c3ccc(-c4cn[nH]c4)cc3)CC23CC3)c1 (single isomer, unassigned) [Example 2, 6-(4-(1H-pyrazol-4-yl)phenyl)-4-(1-(3-methoxyphenyl)ethyl)-4,6-diazaspiro[2.4]heptan-5-one] |
| < 3 | CCC(CC)CN1CCC2(CC1)CN(c1ccc(-c3cn[nH]c3)cc1)C(=O)N2Cc1cccc(OC)c1 [Example 123, 3-(4-(1H-pyrazol-4-yl)phenyl)-8-(2-ethylbutyl)-1-(3-methoxybenzyl)-1,3,8-triazaspiro[4.5]decan-2-one] |
| < 3 | CCN1CCC2(CC1)CN(c1ccc(-c3cn[nH]c3)cc1)C(=O)N2Cc1cccc(OC)c1 [Example 122, 3-(4-(1H-pyrazol-4-yl)phenyl)-8-ethyl-1-(3-methoxybenzyl)-1,3,8-triazaspiro[4.5]decan-2-one] |
| 3 to 30 | CC(C)NC(=O)c1cccc(CN2C(=O)N(c3ccc(-c4cn[nH]c4)cc3)CC23CCOCC3)c1 [Example 34, 3-((3-(4-(1H-pyrazol-4-yl)phenyl)-2-oxo-8-oxa-1,3-diazaspiro[4.5]decan-1-yl)methyl)-N-isopropylbenzamide] |

— patent publication US10787450B2 (BRISTOL-MYERS SQUIBB COMPANY, priority 2016, dated 2020)
